Experimental data reported in paper PMC7659345, “Viral rhodopsins 1 are an unique family of light-gated cation channels” (Nature Communications, 2020).

Columns and labels:
VirChR1 = target: T1, VirChR1 (marine metagenome, UniProt Z9TV22U1G0); assay: UV-visible absorption of purified holoprotein; format: binding; settings: covalent Schiff base (by homology); pH 7.5; all-trans-retinal added to E. coli culture
T1 sequence (Z9TV22U1G0 1-242): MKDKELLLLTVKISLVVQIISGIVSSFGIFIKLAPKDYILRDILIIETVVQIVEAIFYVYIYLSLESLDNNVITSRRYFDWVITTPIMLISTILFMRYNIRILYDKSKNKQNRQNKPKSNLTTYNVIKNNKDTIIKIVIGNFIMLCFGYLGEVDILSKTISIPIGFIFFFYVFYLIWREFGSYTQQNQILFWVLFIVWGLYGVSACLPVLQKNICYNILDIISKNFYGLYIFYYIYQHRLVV

OLPVR1 = target: T2, OLPVR1 (Organic Lake phycodnavirus 1, UniProt Z9N4O7KYY5); assay: X-ray crystal structure, […] A (type A, P21212) and […] A (type B, P1); format: binding; settings: covalent Schiff base to K204; all-trans 15-anti; crystals grown in meso with monopalmitolein, pH 8.0 (7AKY); also 7AKX (monoolein, pH 7.0)
T2 construct: residues 2-223 resolved; one (P21212) or two (P1) molecules per asymmetric unit
T2 sequence (Z9N4O7KYY5 1-223): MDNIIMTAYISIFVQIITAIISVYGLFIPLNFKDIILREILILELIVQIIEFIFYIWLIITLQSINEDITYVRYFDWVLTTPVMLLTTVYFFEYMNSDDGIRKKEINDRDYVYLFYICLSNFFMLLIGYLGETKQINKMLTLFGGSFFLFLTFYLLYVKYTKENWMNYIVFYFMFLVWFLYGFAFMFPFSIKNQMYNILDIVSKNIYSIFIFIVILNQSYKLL

## CC1=C(/C=C/C(C)=C/C=C/C(C)=C/C=O)C(C)(C)CCC1 [all-trans retinal]
VirChR1
  UV-visible absorption of purified holoprotein: Both OLPVR1 and VirChR1 show absorption spectra sensitive to blue light
OLPVR1
  X-ray crystal structure, 1.4 A (type A, P21212) and 1.6 A (type B, P1): all-trans retinal (ATR) covalently bound to K204 (K257 in CrChR2
